Results published in PubChem BioAssay AID328 (DTP/NCI, 2004).
Values joined by “and” are separate entries in the source; they are usually repeats but may differ in a detail not shown here. Equal entries are not always repeated. Toxic doses and inconclusive results are not listed.

System: BDF1 mice, P388 leukemia ip, median survival T/C
Test: NCI In Vivo Anticancer Drug Screen. Data for tumor model P388 Leukemia (intraperitoneal) in B6D2F1 (BDF1) mice
Conditions: endpoint: median survival time, higher = longer survival
In short: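 Antitumour effect was judged in vivo: survival in drug-treated mice, normalised to that of vehicle-dosed controls, gives the reported T/C.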

[1] = dose: 100.0 mg/kg/injection, schedule: Q04DX003 (ip), vehicle: Klucel (hydroxypropylcellulose) (HPC)
[2] = dose: 200.0 mg/kg/injection, schedule: Q04DX003 (ip), vehicle: Klucel (hydroxypropylcellulose) (HPC)
[3] = dose: 50.0 mg/kg/injection, schedule: Q01DX009 (ip), vehicle: saline with Tween-80
[4] = dose: 100.0 mg/kg/injection, schedule: Q01DX009 (ip), vehicle: saline with Tween-80
[5] = dose: 200.0 mg/kg/injection, schedule: Q01DX009 (ip), vehicle: saline with Tween-80
[6] = dose: 100.0 mg/kg/injection, schedule: Q04DX003 (ip), vehicle: saline with Tween-80
[7] = dose: 200.0 mg/kg/injection, schedule: Q04DX003 (ip), vehicle: saline with Tween-80
[8] = dose: 50.0 mg/kg/injection, schedule: Q04DX003 (ip), vehicle: saline with Tween-80
[9] = dose: 400.0 mg/kg/injection, schedule: Q04DX003 (ip), vehicle: saline with Tween-80

## COC1(c2ccccc2)CN(Cc2ccccc2)CCO1 (configuration not stated)
dose: 50.0 mg/kg/injection, schedule: Q01DX009 (ip), vehicle: Klucel (hydroxypropylcellulose) (HPC)
  T/C: 113 % of control
dose: 100.0 mg/kg/injection, schedule: Q01DX009 (ip), vehicle: Klucel (hydroxypropylcellulose) (HPC)
  T/C: 118 % of control
[1]
  T/C: 113 % of control
dose: 200.0 mg/kg/injection, schedule: Q01DX009 (ip), vehicle: Klucel (hydroxypropylcellulose) (HPC)
  T/C: 95 % of control
[2]
  T/C: 113 % of control

## O=[N+]([O-])c1ccc(F)c(CNc2ncnc3c2ncn3C2CCCCO2)c1 (configuration not stated)
dose: 100.0 mg/kg/injection, schedule: Q01DX001 (ip), vehicle: Klucel (hydroxypropylcellulose) (HPC)
  T/C: 95 % of control
dose: 200.0 mg/kg/injection, schedule: Q01DX001 (ip), vehicle: Klucel (hydroxypropylcellulose) (HPC)
  T/C: 110 % of control
dose: 400.0 mg/kg/injection, schedule: Q01DX001 (ip), vehicle: Klucel (hydroxypropylcellulose) (HPC)
  T/C: 105 % of control

## C=C(C)C(=O)NCC(=O)Oc1ccc([N+](=O)[O-])cc1
[3]
  T/C: 86 % of control
[4]
  T/C: 102 % of control
[5]
  T/C: 93 % of control

## Cc1cc(N(CCCl)CCCl)ccc1C=Nc1cccc(Cl)c1
[3]
  T/C: 103 % of control
[4]
  T/C: 119 % of control
[6]
  T/C: 118 % of control
[5]
  T/C: 96 % of control
[7]
  T/C: 118 % of control

## CC(=O)OCC(OC(C)=O)C(OC(C)=O)C(C#N)OC(C)=O (configuration not stated)
[8]
  T/C: 95 % of control
[6]
  T/C: 95 % of control

## CCN(CC)c1c(C)nnc2c3c(-c4ccccc4)c(-c4ccccc4)nnc3nn12
[8]
  T/C: 91 % of control and 97 % of control (2×)
[6]
  T/C: 88 % of control and 91 % of control and 97 % of control
[7]
  T/C: 97 % of control and 108 % of control and 123 % of control
[9]
  T/C: 92 % of control and 113 % of control

## Cn1cc(N)c2ccccc2c1=O
dose: 50.0 mg/kg/injection, schedule: Q01DX005 (ip), vehicle: suspension in saline
  T/C: 92 % of control
dose: 100.0 mg/kg/injection, schedule: Q01DX005 (ip), vehicle: suspension in saline
  T/C: 120 % of control

## C/C(=C/B1OCCO1)CCl
dose: 100.0 mg/kg/injection, schedule: Q04DX003 (ip), vehicle: saline sonified
  T/C: 105 % of control
dose: 200.0 mg/kg/injection, schedule: Q04DX003 (ip), vehicle: saline sonified
  T/C: 100 % of control
dose: 400.0 mg/kg/injection, schedule: Q04DX003 (ip), vehicle: saline sonified
  T/C: 110 % of control

## Nc1ccc(C(OC(=O)c2cc3ccccc3c(Cc3c(O)c(C(=O)OC(c4ccc(N)cc4)(c4ccc(N)cc4)c4ccc(N)cc4)cc4ccccc34)c2O)(c2ccc(N)cc2)c2ccc(N)cc2)cc1
dose: 12.5 mg/kg/injection, schedule: Q01DX009 (ip), vehicle: saline with Tween-80
  T/C: 150 % of control

## O=C(Nc1cc(Cl)cc(Cl)c1)C(Cl)Cl
dose: 50.0 mg/kg/injection, schedule: Q01DX010 (ip), vehicle: carboxymethylcellulose (CMC)
  T/C: 95 % of control
dose: 100.0 mg/kg/injection, schedule: Q01DX010 (ip), vehicle: carboxymethylcellulose (CMC)
  T/C: 110 % of control
dose: 200.0 mg/kg/injection, schedule: Q01DX010 (ip), vehicle: carboxymethylcellulose (CMC)
  T/C: 105 % of control

## O=S(=O)(O)C(I)(I)S(=O)(=O)O
dose: 100.0 mg/kg/injection, schedule: Q04DX003 (ip), vehicle: saline
  T/C: 100 % of control
dose: 200.0 mg/kg/injection, schedule: Q04DX003 (ip), vehicle: saline
  T/C: 95 % of control
dose: 400.0 mg/kg/injection, schedule: Q04DX003 (ip), vehicle: saline
  T/C: 104 % of control

## CC1C=CCC2C(=O)OC(=O)C12 (configuration not stated)
dose: 25.0 mg/kg/injection, schedule: Q04DX003 (ip), vehicle: saline with Tween-80
  T/C: 100 % of control
[8]
  T/C: 100 % of control
[6]
  T/C: 100 % of control

## Cc1cc(Cl)ccc1NC(=O)c1ccccc1C(=O)O
[1]
  T/C: 91 % of control
[2]
  T/C: 91 % of control
dose: 400.0 mg/kg/injection, schedule: Q04DX003 (ip), vehicle: Klucel (hydroxypropylcellulose) (HPC)
  T/C: 87 % of control

## CCC(C)P(=O)(N1CC1)N1CC1 (configuration not stated)
dose: 37.5 mg/kg/injection, schedule: Q04DX003 (ip), vehicle: saline
  T/C: 108 % of control

## C1CCN(NC2=NCCO2)CC1
dose: 12.5 mg/kg/injection, schedule: Q01DX009 (ip), vehicle: saline
  T/C: 95 % of control
dose: 25.0 mg/kg/injection, schedule: Q01DX009 (ip), vehicle: saline
  T/C: 108 % of control
dose: 50.0 mg/kg/injection, schedule: Q01DX009 (ip), vehicle: saline
  T/C: 100 % of control

## CS(=O)(=O)OCC(OS(C)(=O)=O)C(COS(C)(=O)=O)OS(C)(=O)=O (configuration not stated)
[3]
  T/C: 100 % of control
[8]
  T/C: 95 % of control
[4]
  T/C: 102 % of control
[6]
  T/C: 91 % of control
[5]
  T/C: 93 % of control
[7]
  T/C: 95 % of control
dose: 400.0 mg/kg/injection, schedule: Q01DX009 (ip), vehicle: saline with Tween-80
  T/C: 88 % of control
[9]
  T/C: 91 % of control
